Reference: patent US6472526B1, “Imidazole derivatives having an inhibitory activity for farnesyl transferase and process for preparation thereof” (LG Chemical Ltd., priority 1997, dated 2002)

Assays:
[1] = target: T1, Ras farnesyl transferase (Rattus norvegicus, UniProt Q02293+Q04631); experiment: In vivo (cellular) inhibitory activity for Ras farnesyl transferase, Rat2 cell line which expresses C-Harvey-Ras protein; type: cell-based; conditions: Rat2 cell line expressing C-Harvey-Ras; concentration inhibiting 50% of farnesyl bonding of Ras protein; read-out: H-Ras CIC50
T1 construct: endogenous in cells; host or cells: Rat2 fibroblasts transformed with H-Ras or with an H-Ras/K-Ras C-terminus fusion
Procedure, shortened: (§1)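 Farnesylated versus unfarnesylated Ras bands were measured by autoradiography after Y13-259 immunoprecipitation and SDS-PAGE, giving CIC50 as 50% inhibition of farnesylation. Rat2 cells expressing H-Ras or an H-Ras fusion with K-Ras polybasic C-terminus got compound (1% DMSO), then [35S]methionine from 4 h onward for 20 h.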

[2] = target: T2, Ras farnesyl transferase (Homo sapiens, UniProt P49354+P49356); experiment: In vitro inhibitory activity for Ras farnesyl transferase, H-Ras substrate; type: biochemical; conditions: recombinant farnesyl transferase 4.5 nM, Ras substrate protein 1.5 μM, tritium-farnesylpyrophosphate 0.15 μM, 30 minutes at 37° C.; read-out: H-Ras IC50
T2 construct: made in house

[3] = target: T2, Ras farnesyl transferase; experiment: In vitro inhibitory activity for Ras farnesyl transferase, K-Ras substrate; type: biochemical; conditions: in vitro farnesyl transferase assay, K-Ras; read-out: K-Ras IC50
[4] = target: T1, Ras farnesyl transferase; experiment: In vivo (cellular) inhibitory activity for Ras farnesyl transferase, Rat2 cell line transformed with fused protein of H-Ras substituted with polybasic lysine domain at C-terminus of K-Ras; type: cell-based; conditions: Rat2 cell line transformed with H-Ras fused with polybasic lysine domain of K-Ras C-terminus; concentration inhibiting 50% of farnesyl bonding; read-out: K-Ras CIC50
Procedure, shortened: as §1

Compound	IC50 [1] [nM]	IC50 [2] [nM]	IC50 [3] [nM]	IC50 [4] [nM]
O=C(c1ccc(Br)cc1)c1cn(Cc2c[nH]cn2)cc1-c1cccc2ccccc12 [Compound 49]	700	30	485	< 20000
CN1CCN(C(=O)c2cn(Cc3cncn3Cc3ccc4ccccc4c3)cc2-c2cccc3ccccc23)CC1 [Compound 30]	10	2	4	10000 to 20000
CN1CCN(C(=O)c2cn(Cc3cncn3Cc3ccc4c(c3)OCO4)cc2-c2cccc3ccccc23)CC1 [Compound 3, 1-[1-(3,4-Methylenedioxybenzyl)-1H-imidazol-5-ylmethyl]-3-(4-methylpiperazin-1-yl)carbonyl-4-(naphthalen-1-yl)-1H-pyrrole]	25	1	2.4	15000
COCCN(C)C(=O)c1cn(Cc2cncn2CCc2ccc(Cl)cc2)cc1-c1cccc2ccccc12 [Compound 39, 1-[1-(4-Chloro)phenethyl-1H-imidazol-5-yl]methyl-3[N-(2-methoxyethyl)-N-methyl]carbamoyl-4-(naphthalen-1-yl)-1H-pyrrole]	20	2	3	10000 to 50000

The remaining lines, values ahead:

IC50 [1] [nM]	IC50 [2] [nM]	IC50 [3] [nM]	IC50 [4] [nM]	Compound
1000 to 50000	720	1830	10000 to 100000	O=C(c1cn(Cc2c[nH]cn2)cc1-c1cccc2ccccc12)N1CCCCC1 [Compound 84]
1000 to 50000	40	100 to 10000	10000 to 100000	O=C(c1ccc(Cl)cc1)c1cn(Cc2c[nH]cn2)cc1-c1cccc2ccccc12 [Compound 56]
1000 to 50000	60	100 to 10000	10000 to 100000	O=C(c1cn(Cc2c[nH]cn2)cc1-c1cccc2ccccc12)N1CCS(=O)(=O)CC1 [Compound 87]
